Legend:
[1] = tested on: rats with hypotonic hyponatremia (model of SIADH); assay: DDAVP-induced hypotonic hyponatremia in rats (model of SIADH): plasma sodium and osmolarity; format: in vivo, rat (male Sprague-Dawley); settings: day 14, end of experiment; DDAVP infused 1 ng/h s.c. for 14 days, liquid diet; Mean ±SD
Text: The condition of hypotonic hyponatremia was created by infusing a selective vasopressin V2 agonist, DDAVP, into rats using an osmotic minipump implanted subcutaneously for 14 days in animals with access to only liquid food (a model of SIADH: syndrome of inappropriate antidiuretic hormone secretion). […] Rats either received a daily oral administration of tolvaptan or vehicle in an escalating dosing regime.
Tolvaptan was supplied as a spray-dried formulation, which is a mixture of tolvaptan (free form) and hydroxypropylcellulose (HPC-SL) at a ratio of 2:1. Therefore, the amount of tolvaptan (spray-dried form) was 1.5 times that of tolvaptan (free form). Tolvaptan was suspended in 1% hydroxypropylmethylcellulose solution.
The V2 agonist DDAVP ([deamino-Cys1, D-Arg8]-vasopressin was dissolved in saline (2 μg/mL).
Male Sprague-Dawley rats weighing 150-175 grams were used. Rats had access to feed and tap water. From day −3 (see the timeline in FIG. 1), rats were fed with a customized liquid food (RD-LD89 All-Purpose Liquid Diet Premix, Research Diets, Inc, New Brunswick, N.J.) and no additional food or water was provided. The liquid diet was mixed with water according to manufacturer's instructions.
Rats were acclimated for 3 days to liquid food before the study. Hyponatremia was induced by continuous subcutaneous infusion of 1 ng/h of DDAVP per animal using osmotic minipumps (infusion rate: 0.5 μL/h, ALZET model 2002, DURECT Corporation, Cupertino, Calif.) for 14 days (see FIG. 1). On day 0 when the osmotic minipump was implanted, rats were anesthetized by an intraperitoneal injection of a mixture of ketamine (40 mg/kg) and xylazine (5 mg/kg). The following procedure of implanting minipumps was performed using aseptic techniques. An area 4 cm long and 3 cm wide on the back of the animal (slightly posterior to the scapulae) was shaved and cleaned. A 1 cm cross mid-scapular incision was made. A hemostat was inserted into the incision and a pocket for the pump was created by opening and closing the jaw of the hemostat to spread the subcutaneous tissue. The pump (length 3 cm, diameter 0.7 cm and 0.4 grams) was inserted into the pocket, delivery portal first. The wound was closed with wound clips, and animals were placed on a heating pad for recovery, and eventually returned back to the cage.
On day 2 after the surgery, animals were switched to a nutritionally complete liquid food diet containing 14% dextrose (see FIG. 1). No additional water or solid food was provided.
Starting from day 4, an escalating dosing regime of tolvaptan or vehicle was used from 0.25 mg/kg to 10 mg/kg daily.

[2] = tested on: regional cardiac ischemia/reperfusion in rat heart; assay: 20 minutes regional cardiac ischemia and 3 hours reperfusion in hyponatremic rats: myocardial infarction, risk size, hemodynamics; format: in vivo, rat (male Sprague-Dawley); settings: 20 min regional ischemia, 3 h reperfusion on day 14, compared with saline-infused or vehicle-treated rats, TTC staining
Text: The condition of hypotonic hyponatremia was created by infusing a selective vasopressin V2 agonist, DDAVP, into rats using an osmotic minipump implanted subcutaneously for 14 days in animals with access to only liquid food (a model of SIADH: syndrome of inappropriate antidiuretic hormone secretion). Control rats had the same surgical implantation of an osmotic minipump filled with saline. Rats either received a daily oral administration of tolvaptan or vehicle in an escalating dosing regime. At the end of the 14-day period, rats were subjected to 20 minutes of regional cardiac ischemia and 3 hours of reperfusion, and myocardial infarction was determined. At the final day of the study (day 14), rats were anesthetized, and the chest was open. Hearts were subjected to 20 minutes of regional ischemia followed by 3 hours of reperfusion. On day 14, rats were anesthetized with pentobarbital (30 mg/kg) by an intraperitoneal injection. Once anesthesia was induced, a tracheotomy was performed, and the trachea was cannulated and the animal was attached to a respirator. An oxygen supplement was fed into the tracheal line to maintain the pO2 above 100 mmHg. A cannula was inserted into the right carotid artery to monitor blood pressure and heart rate. The heart was exposed through a left thoracotomy in the fourth intercostal space, and the pericardium opened. A snare was placed around a major branch of the left coronary artery of the animal using a 5-0 suture. The suture ends were passed through a small segment of pliable polyethylene tubing to form a snare. Regional ischemia was induced by pulling the silk tightly through the tubing and clamping the tube with a hemostat. Experiments involved 20 minutes of ischemia and 3 hr reperfusion, which was achieved by releasing the snare. Myocardial ischemia and reperfusion were confirmed by the observation of regional cyanosis and hyperemia, respectively. […] Infarct size was determined by planimetry and expressed as a percentage of risk area infarcted. Data were expressed as the Mean ±SD (standard deviation). […]

SMILES	plasma osmolarity [1] [mOsm/kg]	plasma sodium [1] [mmol/L]	myocardial infarct size (percentage of risk area infarcted) [2]	myocardial infarct size (percentage of risk area infarcted) ([2]; listed as tolvaptan)
NC(=O)CC[C@@H]1NC(=O)[C@H](Cc2ccccc2)NC(=O)[C@H](Cc2ccc(O)cc2)NC(=O)CCSSC[C@@H](C(=O)N2CCC[C@H]2C(=O)N[C@H](CCCN=C(N)N)C(=O)NCC(N)=O)NC(=O)[C@H](CC(N)=O)NC1=O [DDAVP, [deamino-Cys1, D-Arg8]-vasopressin]	264±6	114 ± 7	more than double	–
Cc1ccccc1C(=O)Nc1ccc(C(=O)N2CCCC(O)c3cc(Cl)ccc32)c(C)c1 (stereo not shown) [Tolvaptan, 7-chloro-5-hydroxy-1-[2-methyl-4-(2-methylbenzoyl-amino)benzoyl]-2,3,4,5-tetrahydro-1H-benzazepine]	304±8	140 ± 3	reduced the infarct size in DDAVP-infused rats to a level similar to that in saline-infused rats	much smaller degree as compared with that in vehicle-treated rats
